# Reference: patent publication US12002595B2, “Separation of metal ions by liquid-liquid extraction” (priority 2016, dated 2024)
# Key:
# [1] = Stability constant (log β) of ligand-metal complexes; format: binding; settings: 25.0° C., 0.1 M KCl
# Protocol: Solution Thermodynamics. All titrant solutions were degassed by boiling for 1 h while being purged under Ar. Carbonate-free 0.1 M KOH was prepared from concentrate (J. T Baker Dilut-It) and was standardized by titrating against 0.1 M potassium hydrogen phthalate (99.95%, Sigma Aldrich). Solutions of 0.1 M HCl were similarly prepared and were standardized by titrating against TRIS (99.9%, J. T. Baker). The glass electrode (Metrohm—Micro Combi—response to [H+]) used for the pH measurements was calibrated at 25.0° C. and at an ionic strength of 0.1 M (KCl) before each potentiometric or spectrophotometric titration. The calibration data were analyzed using the program GLEE (Gans & O'Sullivan, Talanta, 2000, 51 (1): 33-37) to refine for the E° and slope. All thermodynamic measurements were conducted at 25.0° C., in 0.1 M KCl supporting electrolyte under positive Ar gas pressure. The automated titration system was controlled by an 867 pH Module (Metrohm). Two-milliliter Dosino 800 burets (Metrohm) dosed the titrant (0.1 M KOH or 0.1 M HCl) into the thermostated titration vessel (5-90 mL). UV-visible spectra were acquired with an Ocean Optics USB4000-UV-vis spectrometer equipped with a TP-300 dip probe (Ocean Optics; path length of 10 mm), fiber optics and a DH-2000 light source (deuterium and halogen lamps). The fully automated titration system and the UV-vis spectrophotometer were coordinated by LBNL titration system, a computer program developed in house.
# Incremental Spectrophotometric Titrations. This method was used to determine the protonation constants of 3,4,3-LI(CAM) as well as the stability constants of its complexes formed with Eu(III), Zr(IV) and ^232Th(IV). The experimental titration setup is similar to previously described systems (Sturzbecher-Hoehne, et al., Radiochimica Acta., 2013, 101 (6): 359-366). For the 3,4,3-LI(CAM) protonation (and Eu(III)-3,4,3-LI(CAM) complexes), titrations were performed with an initial concentration of 50 μM of 3,4,3-LI(CAM) (and 50 μM of Eu(III)) resulting in absorbance values included between 0 and 1.0 throughout the titration. Typically, 9 mL of a sample containing 3,4,3-LI(CAM) (and Eu(III)) and the supporting electrolyte (KCl/HCl) were incrementally perturbed by addition of 0.025 mL of carbonate-free 0.1 M KOH followed by a time delay of 80 s. Buffering of the solution was ensured by the addition of 10 mM of HEPES, 10 mM of CHES and 10 mM of MES. Between 130 and 250 data points were collected per titration, each data point including a pH measurement and a UV-Vis spectrum (250-450 nm) over the pH range 1.5 to 12.0. All spectra were corrected for dilution before data fitting. The entire procedure (electrode calibrate, titration and data treatment) was performed independently five times for the protonation constants and four times for the Eu(III)-3,4,3-LI(CAM) complexes. For the Zr(IV) and Th(IV) complexes, titrations were performed similarly but in the presence of DTPA to avoid the formation of metal hydroxides at low pH, before the uptake by 3,4,3-LI(CAM). For each metal, three titrations were performed independently in the presence of 1.1 to 40 equivalents of DTPA.
# Data Treatment. […] All metal and chelator concentrations were held at estimated values determined from the volume of standardized stock solutions. All species formed with 3,4,3-LI(CAM) were considered to have significant absorbance to be observed in the UV-vis spectra and were therefore included in the refinement process. […]
# [2] = Extraction by HDEHP with 1 mM 343HOPO in 0.1 M HNO3 and 1.9 M NaNO3; settings: chelator in place of 343HOPO; acidic conditions
# Protocol: Aqueous phase: 1 mM 343HOPO in 0.1 M HNO3 and 1.9 M NaNO3. Organic phase: HDEHP in kerosene.
# A log scale is used for clarity. See FIGS. 58A and 58B for results as a function of the phase ratio.
# (§1) For Example 20—Example 24, pH measurements were performed with a glass electrode (Metrohm-Micro Combi-response to [H+]) calibrated at 25.0° C. using three NIST standards. Extraction samples were analyzed by liquid scintillation counting (LSC). The distribution coefficient, D(M), of a given metal, M, is defined in Eq. 1, where [M]organic and [M]aqueous are the respective total concentrations of M in the organic and aqueous layers, after extraction. Both concentrations are proportional to the volumetric activity (in Bq/L) determined by LSC. The separation factor, SFM1/M2, between two metals, M1 and M2, and extraction yield were calculated according to Eq. 2 and Eq. 3, respectively.
# (§2) In a typical experiment, the solvent (extractant diluted in kerosene) was pre-conditioned by shaking one volume of solvent with three volumes of aqueous phase (typically HNO3) at room temperature for 1 h, thrice. For radioisotope extractions, at least 400 μL aqueous phase (typically containing HNO3, a chelator and a radioisotope) and solvent were placed in air-tight screw-capped plastic tubes, triply-contained, and shaken in a thermoshaker at 300 rpm, 25° C., for at least 30 min. Samples were then centrifuged for 5 min at 3000 rpm and phases separated before analysis. LSC analyses were performed on a Packard Tri-Carb B4430 instrument (Perkin Elmer) after mixing sample aliquots or sample dilution aliquots (10 to 200 μL) with 10 mL of scintillation cocktail (UltimaGold LLT). Samples were counted for at least 6 min and results were background subtracted. The analytical samples contained between 0 and 800,000 CPM. Mixtures of ^249Bk and ^249Cf were analyzed using α/β discrimination and energy windows were set to 0-50 keV for low-energy β particles of ^249Bk and 50-1000 keV for α particles of ^249Cf. ^243Am and ^225Ac samples were counted at secular equilibrium.
# [3] = Extraction by TODGA from HNO3 in the absence or presence of 1 mM 343HOPO
# Protocol: Organic phase: 0.1 M TODGA in kerosene. Aqueous solvent: HNO3. T=25° C. O/A=1, one contact. Points with arrows are lower limits.
# as §1, §2
# [4] = Eu(III), I=2.0 M at 25° C.; cited from earlier work
smiles,measurement,setting,value
"O=C(NCCCN(CCCCN(CCCNC(=O)c1cccc(O)c1O)C(=O)c1cccc(O)c1O)C(=O)c1cccc(O)c1O)c1cccc(O)c1O [3,4,3-LI(CAM)]",log β110,"[1]; [Eu-3,4,3-LI(CAM)]^5−",29.7
same,log β110,"[1]; [Th-3,4,3-LI(CAM)]^4−",47.7
same,log β110,"[1]; [Zr-3,4,3-LI(CAM)]^4−",57.3
"O=C(O)CN(CC(=O)O)[C@H]1CCCC[C@@H]1N(CC(=O)O)CC(=O)O [CDTA, Trans-1,2-cyclohexanediamine-N,N,N′,N′-tetraacetic acid]",separation between Bk and Cf,[2],no separation at all
"O=C(O)CN(CCN(CC(=O)O)CC(=O)O)CC(=O)O [EDTA, Ethylenediaminetetraacetic acid]",separation between Bk and Cf,[2],no separation at all
"O=C(O)CN(CC(=O)O)CC(=O)O [NTA, Nitrilotriacetic acid]",separation between Bk and Cf,[2],no separation at all
"CCCCCCCCN(CCCCCCCC)C(=O)COCC(=O)N(CCCCCCCC)CCCCCCCC [TODGA, N,N,N′,N′-tetraoctyl diglycolamide, reference compound]",distribution factor of uranyl (Du),[3]; TODGA as extractant,< 30
same,"extraction yields of Gd^3+, Lu^3+, UO2^2+, Pu^4+, and Cf^3+ from HNO3","[3]; if HNO3>1 M, no chelator, 0.1 M TODGA in kerosene",> 99.5%
CC(O)C(=O)O (stereo not drawn) [lactate],log β130,[4],5.88
